# Measured values taken from ChEMBL document CHEMBL2396653, “Synthesis and antimycobacterial evaluation of N-substituted 5-chloropyrazine-2-carboxamides” (Bioorg Med Chem Lett, 2013).
# Active and inactive are the calls of the source. No cut-off for these calls is given here.
# Experiments:
# Pseudomonas aeruginosa = test: Antibacterial activity against Pseudomonas aeruginosa CCM 1961 assessed as growth inhibition after 24 to 48 hrs by microbroth dilution method; type: functional, organism-based
# Enterococcus = test: Antibacterial activity against Enterococcus sp. J 14365/08 clinical isolate assessed as growth inhibition after 24 to 48 hrs by microbroth dilution method; type: functional, organism-based
# [1] = system: Mycobacterium tuberculosis; test: Antimycobacterial activity against Mycobacterium tuberculosis H37Rv assessed as growth inhibition after 14 days by microdilution method; type: functional; conditions: 336 h
# Staphylococcus aureus [2] = test: Antibacterial activity against methicillin-resistant Staphylococcus aureus H 5996/08 clinical isolate assessed as growth inhibition after 24 to 48 hrs by microbroth dilution method; type: functional, organism-based
# Trichosporon asahii = test: Antifungal activity against Trichosporon asahii 1188 assessed as growth inhibition after 24 to 48 hrs by microbroth dilution method; type: functional, organism-based
# Aspergillus fumigatus = test: Antifungal activity against Aspergillus fumigatus 231 assessed as growth inhibition after 24 to 48 hrs by microbroth dilution method; type: functional, organism-based
# [3] = system: Trichophyton mentagrophytes; test: Antifungal activity against Trichophyton mentagrophytes 445 assessed as growth inhibition after 72 to 120 hrs by microbroth dilution method; type: functional, organism-based
# Klebsiella pneumoniae [4] = test: Antibacterial activity against ESBL-positive Klebsiella pneumoniae J 14368/08 clinical isolate assessed as growth inhibition after 24 to 48 hrs by microbroth dilution method; type: functional, organism-based
# Pichia kudriavzevii = test: Antifungal activity against Candida krusei E28 assessed as growth inhibition after 24 to 48 hrs by microbroth dilution method; type: functional, organism-based
# [5] = Stability of the compound at pH 7; type: physicochemical; conditions: buffer
# Mycobacterium avium [6] = test: Antimycobacterial activity against Mycobacterium avium CNCTC My 152/73 assessed as growth inhibition after 14 days by microdilution method; type: functional; conditions: CNCTC My 152/73, 336 h
# Mycobacterium kansasii = test: Antimycobacterial activity against Mycobacterium kansasii CNCTC My 235/80 assessed as growth inhibition after 14 days by microdilution method; type: functional; conditions: CNCTC My 235/80, 336 h
# Candida albicans = test: Antifungal activity against Candida albicans ATCC 44859 assessed as growth inhibition after 24 to 48 hrs by microbroth dilution method; type: functional, organism-based
# [7] = system: Staphylococcus epidermidis; test: Antibacterial activity against Staphylococcus epidermidis H 6966/08 clinical isolate assessed as growth inhibition after 24 to 48 hrs by microbroth dilution method; type: functional, organism-based
# Candida tropicalis = test: Antifungal activity against Candida tropicalis 156 assessed as growth inhibition after 24 to 48 hrs by microbroth dilution method; type: functional, organism-based
# Nakaseomyces glabratus = test: Antifungal activity against Candida glabrata 20/I assessed as growth inhibition after 24 to 48 hrs by microbroth dilution method; type: functional, organism-based
# Staphylococcus aureus [8] = test: Antibacterial activity against Staphylococcus aureus CCM 4516/08 assessed as growth inhibition after 24 to 48 hrs by microbroth dilution method; type: functional, organism-based
# [9] = Lipophilicity, log K of the compound by HPLC analysis; type: physicochemical
# Lichtheimia corymbifera = test: Antifungal activity against Absidia corymbifera 272 assessed as growth inhibition after 24 to 48 hrs by microbroth dilution method; type: functional, organism-based
# Escherichia coli = test: Antibacterial activity against Escherichia coli CCM 4517 assessed as growth inhibition after 24 to 48 hrs by microbroth dilution method; type: functional, organism-based
# Mycobacterium avium [10] = test: Antimycobacterial activity against Mycobacterium avium CNCTC My 80/72 assessed as growth inhibition after 14 days by microdilution method; type: functional; conditions: CNCTC My 80/72, 336 h
# Klebsiella pneumoniae [11] = test: Antibacterial activity against Klebsiella pneumoniae D 11750/08 clinical isolate assessed as growth inhibition after 24 to 48 hrs by microbroth dilution method; type: functional, organism-based
SMILES,growth inhibition (GI) (Pseudomonas aeruginosa),growth inhibition (GI) (Enterococcus),MIC [1] [µg/mL],growth inhibition (GI) (Staphylococcus aureus [2]),growth inhibition (GI) (Trichosporon asahii),growth inhibition (GI) (Aspergillus fumigatus),growth inhibition (GI) [3],growth inhibition (GI) (Klebsiella pneumoniae [4]),growth inhibition (GI) (Pichia kudriavzevii),Stability [5],MIC (Mycobacterium avium [6]) [µg/mL],MIC (Mycobacterium kansasii) [µg/mL],growth inhibition (GI) (Candida albicans),growth inhibition (GI) [7],growth inhibition (GI) (Candida tropicalis),growth inhibition (GI) (Nakaseomyces glabratus),growth inhibition (GI) (Staphylococcus aureus [8]),log K [9],growth inhibition (GI) (Lichtheimia corymbifera),growth inhibition (GI) (Escherichia coli),also measured
O=C(Nc1cccc(Cl)c1)c1cnc(Cl)cn1,inactive,inactive,3.13,inactive,inactive,inactive,inactive,inactive,inactive,Stable,25,25,inactive,inactive,inactive,inactive,inactive,0.5873,inactive,inactive,MIC (Mycobacterium avium [10]): 25 µg/mL; growth inhibition (GI) (Klebsiella pneumoniae [11]): inactive
O=C(NCc1ccccc1C(F)(F)F)c1cnc(Cl)cn1,inactive,inactive,25,inactive,inactive,inactive,inactive,inactive,inactive,Stable,> 100,100,inactive,inactive,inactive,inactive,inactive,0.4851,inactive,inactive,MIC (Mycobacterium avium [10]): > 100 µg/mL; growth inhibition (GI) (Klebsiella pneumoniae [11]): inactive
O=C(Nc1ccccc1F)c1cnc(Cl)cn1,inactive,inactive,6.25,inactive,inactive,inactive,inactive,inactive,inactive,Stable,> 100,12.5,inactive,inactive,inactive,inactive,inactive,0.4903,inactive,inactive,MIC (Mycobacterium avium [10]): > 100 µg/mL; growth inhibition (GI) (Klebsiella pneumoniae [11]): inactive
